Experimental data as given in patent publication US5578643A, “Protective prostaglandins for use in conjunction with chemotherapeutic agents” (Loyola University of Chicago, priority 1994, dated 1996).

What was measured:
hair medullary cells = experiment: Number of hair medullary cells four days after a single dose of chemotherapeutic agent, with or without misoprostol; assay type: in vivo, CF1 mice
Experimental: FIG. 13 is a representation of photographs of shafts of hair showing a single line of medullary cells in control mice (Panel A) and in mice 4 days after they were given a single dose of 0.3 mg of VP-16-213 (Panel B).
Number of Hair Medullary Cells as a Measure of Protection from Injury caused by Chemotherapeutic Agents.
The shafts of hair in CF1 mice contain usually a single line of about 50±1 medullary cells. These cells are very sensitive to cytotoxic agents (see Potten, C. S., Geng, L., and Taylor, P., Hair Medullary Cell Counts: a Simple and Sensitive Indicator of Radiation Exposure. Int. J Radiat. Biol., 57:13-21, 1990). Single doses of cytotoxic chemotherapeutic agents greatly reduce the number of medullary cells which reach a nadir at 4 days after administration of the agent. This cell system has been used for the evaluation of misoprostol-induced protection from several chemotherapeutic agents.
CF1 mice had hair from an area of their rump plucked to induce anagen growth as described in Example 2 above. […] In separate groups, mice received misoprostol (40 μg/average 30 g mouse) either subcutaneously or applied topically 2 hours before each of the chemotherapeutic agents listed above. Untreated controls were used since it has been previously determined that water, or 2% EtOH in water, or phosphate buffer at pH=6.8 (the vehicles for the all agents used) had no influence on the cell counts compared to untreated controls. Twenty-five hairs from each animal of each group were dissected from Feulgen stained samples taken from the mice 4 days after treatment.
The number of medullary cells was averaged (n=4) for each treatment group and the results for all chemotherapeutic agents tested to date are presented in Table I.

[1] = system: mice given graded doses of doxorubicin (DOX); experiment: DOX dose response: dose killing 50% of the mice within 15 days, alone or after PG or WR-2721; assay type: in vivo
Experimental: The open triangle is data of a group of 10 mice given WR-2721, 30 minutes before administration of 0.75 mg of doxorubicin. (The lines are computer fit spline curves through the data; n=24 per data point on each curve).
(The lines are computer fit spline curves through the data; n=8 per data point for each of the PG-treated groups and n=24 for the data points of mice treated only with doxorubicin).
It was observed that all acute deaths due to DOX treatment alone occurred before day 15 following DOX administration. Subsequently, the parameter of death within 15 days was used to investigate the DOX dose response administered IP alone or 2 hours after 40 μg of misoprostol was given subcutaneously (sc). In this study, a dose of about 0.5 mg of DOX/average 30 gram mouse, killed 50% of the DOX treated mice (see FIG. 5).
A comparison of PG-induced protection was made to that of protection by WR-2721; an agent reported to protect from some chemotherapeutic agents. […] Two other PGs representing different structural prostaglandins than misoprostol were also investigated for their effectiveness in protecting mice from mortality resulting from administration of graded doses of DOX.

[2] = system: mice given doxorubicin (DOX); experiment: Survival of mice (percent survival over 15 days) after doxorubicin, with or without prior prostaglandin; conditions: n=16
Experimental: (§1) FIG. 1 is a graph illustrating percent survival of mice over 15 days as a function of the time interval (in hours) between the administration of misoprostol and the subsequent administration of doxorubicin. (The two curves represent duplicate experiments; 12 animals per experiment.)
(§2) FIG. 2 is a graph illustrating the percent survival of mice over 15 days following the administration of 0.5 mg of doxorubicin (open circles) and mice given 40 μg of misoprostol 2 hours before administration of 0.5 mg of doxorubicin (filled circles). (N=16 for each group).
(§3) FIG. 3 is a graph illustrating the percent survival of mice over 15 days following the administration of 0.75 mg of doxorubicin (open circles) and mice given 40 μg of misoprostol 2 hours before administration of 0.75 mg of doxorubicin (filled circles). (N=16 for each group).
(§4) Mortality of mice is a measure of PG-induced protection from death due to severe normal tissue injury inflicted by chemotherapy agents.
(§5) This assay was accomplished by injecting intraperitoneally (IP) separate groups of mice with a range of doses of chemotherapeutic agents. […] In some groups of mice, longevity was recorded by plotting the number of animals remaining alive (percent survival) versus time following the administration of the chemotherapeutic agent.
(§6) PG-induced protection from the toxic chemotherapeutic agents was measured by subcutaneous (SC) injection of the PG at various times prior to or after the IP administration of the chemotherapeutic agent. […] The time interval was varied from 15 minutes to 5 hours. The two curves represent two separate experiments with 20 mice in each experiment. The "0" time point is the percentage of mice that survived 15 days after administration of doxorubicin alone.

[3] = system: white blood cells (WBCs) in the peripheral circulation; experiment: WBC counts and differential counts in peripheral blood of DOX treated mice; assay type: in vivo
Experimental: FIG. 7 is a graph illustrating the protective effect of misoprostol (given 2 hours before doxorubicin) on WBC counts compared to the effect of doxorubicin alone on WBC counts as function of time (in days). (The numbers 1 and 2 are duplicate studies.)
Death within 15 days of DOX treatment alone is most likely associated with bone marrow injury. […] DOX, therefore, appears to not only reduce the total WBC, but has a particularly marked effect on lymphocytes.

[4] = system: mice given 5-fluorouracil; experiment: Survival of mice after 12.5 mg of 5-fluorouracil, with or without prior misoprostol; assay type: in vivo; conditions: 40 μg misoprostol 2 hours before 12.5 mg of 5-fluorouracil; FIG. 4
Experimental: The toxicity of 12.5 mg of 5-fluorouracil alone to mice and the effectiveness of 40 μg of misoprostol given 2 hours prior to administration of 5-fluorouracil to protect from death due to 5-fluorouracil is shown in FIG. 4.

hair follicles = experiment: Hair count / hair loss (alopecia) caused by chemotherapeutic agents, 5 daily treatments; assay type: in vivo, mice
Experimental: Panel C is a representation of a photomicrograph of an animal given 40 μg of misoprostol, 2 hours before the 0.1 mg daily dose of doxorubicin given each day for 5 days.
(Data are the means of 6 mice (2 fields/mouse)±1 SEM.)
Amount of Hair Loss as a Measure of PG-induced Protection from Alopecia caused by Chemotherapeutic Agents.
One of the side effects of chemotherapy in cancer patients is hair loss or alopecia. Studies were conducted to measure a possible protective effect of PGs from alopecia caused by chemotherapeutic agents. […] The hairs on the rumps of mice (n=4/group) were plucked to induce a growth or anagen cycle within hair follicles which continues for about 18 days. […] Control groups (n=4) received no treatment or misoprostol alone.

small intestine = experiment: Intestinal microcolonies in DOX treated mice, with or without PGE1; assay type: in vivo; conditions: 0.5 mg of doxorubicin; FIG. 12
Description: (Data are the means of 4 mice±1 SEM.)
(§7) The hair counts from skin fields of control (open bar), DOX (striped bar) and misoprostol+DOX (filled bar) treated mice are shown in FIG. 9. […] Misoprostol given before DOX increased the hair count to 213±7.8. […] Since prostaglandin receptors are not evenly distributed, protection may not be evenly distributed. PGE1 is associated with the skin (hair follicles) but not with the gut. The ability of PGE1 to protect the skin (hair follicles) and the small intestine from cell injury caused by doxorubicin was tested. […] A single dose of 0.5 mg of doxorubicin reduced this count to 43±8. Administration of 10 μg of PGE1 prior to administration of doxorubicin provided protection as indicated by the increase in the number of hairs to 111±12. […] More evidence is presented in Example 3.

skin (hair follicles) = experiment: Hair count after a single dose of doxorubicin, with or without PGE1; assay type: in vivo, mice; conditions: single dose of 0.5 mg doxorubicin; control 237±5; FIG. 11
Experimental: FIG. 11 is a graph illustrating the number of hairs per 4.16 sq. mm of skin area in control mice, in mice that received 0.5 mg of doxorubicin or in mice that received 10 μg of PGE1 2 hours before receiving 0.5 mg of doxorubicin. (Data are the means of 6 mice (2 field/mouse)±SEM.)
as §7

[5] = Survival of mice (percent survival over 15 days) after doxorubicin, with or without prior prostaglandin; conditions: mouse, in vivo, ip, 0.5 mg
Experimental: as §1, §2, §3, §4, §5, §6

## CCCCC(C)(O)C/C=C/[C@H]1[C@H](O)CC(=O)[C@@H]1CCCCCCC(=O)OC (mixture of isomers) [misoprostol, (±)(16RS)-15-deoxy-16-hydroxy-16-methyl prostaglandin E1, methyl ester]
Hair medullary cells; 40 μg SC 2 hrs before 5 FU (1.0 mg)
  Number of Medullar Cells ± 1 SEM, misoprostol subcutaneously: 37.4 ± 5.0
Hair medullary cells; 40 μg SC 2 hrs before ARA-C (8 mg)
  Number of Medullar Cells ± 1 SEM, misoprostol subcutaneously: 40.1 ± 0.7
Hair medullary cells; 40 μg SC 2 hrs before Bleomycin (0.05 mg)
  Number of Medullar Cells ± 1 SEM, misoprostol subcutaneously: 27.9 ± 1.2
Hair medullary cells; 40 μg SC 2 hrs before CTX (1 mg)
  Number of Medullar Cells ± 1 SEM, misoprostol subcutaneously: 33.1 ± 1.3
Hair medullary cells; 40 μg SC 2 hrs before Carboplatin (1.0 mg)
  Number of Medullar Cells ± 1 SEM, misoprostol subcutaneously: 31.2 ± 2.4
Hair medullary cells; 40 μg SC 2 hrs before Cisplatin (0.25 mg)
  Number of Medullar Cells ± 1 SEM, misoprostol subcutaneously: 14.3 ± 0.4
Hair medullary cells; 40 μg SC 2 hrs before DOX (0.3 mg)
  Number of Medullar Cells ± 1 SEM, misoprostol subcutaneously: 30.0 ± 1.1
Hair medullary cells; 40 μg SC 2 hrs before HU (10 mg)
  Number of Medullar Cells ± 1 SEM, misoprostol subcutaneously: 38.9 ± 0.7
Hair medullary cells; 40 μg SC 2 hrs before Methotrexate (0.2 mg)
  Number of Medullar Cells ± 1 SEM, misoprostol subcutaneously: 50.6 ± 0.6
Hair medullary cells; 40 μg SC 2 hrs before Mitomycin C (0.01 mg)
  Number of Medullar Cells ± 1 SEM, misoprostol subcutaneously: 38.2 ± 1.9
Hair medullary cells; 40 μg SC 2 hrs before Taxol (0.6 mg)
  Number of Medullar Cells ± 1 SEM, misoprostol subcutaneously: 26.0 ± 3.5
Hair medullary cells; 40 μg SC 2 hrs before VP-16-213 (0.3 mg)
  Number of Medullar Cells ± 1 SEM, misoprostol subcutaneously: 34.4 ± 1.1
Hair medullary cells; 40 μg topical 2 hrs before ARA-C (8 mg)
  Number of Medullar Cells ± 1 SEM, misoprostol topical: 43.1 ± 1.7
Hair medullary cells; 40 μg topical 2 hrs before Bleomycin (0.05 mg)
  Number of Medullar Cells ± 1 SEM, misoprostol topical: 28.1 ± 1.0
Hair medullary cells; 40 μg topical 2 hrs before CTX (1 mg)
  Number of Medullar Cells ± 1 SEM, misoprostol topical: 31.5 ± 2.2
Hair medullary cells; 40 μg topical 2 hrs before DOX (0.3 mg)
  Number of Medullar Cells ± 1 SEM, misoprostol topical: 27.0 ± 1.3
Hair medullary cells; 40 μg topical 2 hrs before HU (10 mg)
  Number of Medullar Cells ± 1 SEM, misoprostol topical: 40.7 ± 1.0
Hair medullary cells; 40 μg topical 2 hrs before Methotrexate (0.2 mg)
  Number of Medullar Cells ± 1 SEM, misoprostol topical: 46.7 ± 2.2
Hair medullary cells; 40 μg topical 2 hrs before VP-16-213 (0.3 mg)
  Number of Medullar Cells ± 1 SEM, misoprostol topical: 33.0 ± 1.6
Hair medullary cells; ARA-C, bleomycin, HU (misoprostol given systemically), cisplatin, carboplatin or 5-FU treated mice
  lack of protection of medullary cells: did not protect medullary cells
[1]; 40 μg misoprostol SC 2 hours before graded doses of DOX, death within 15 days, FIG. 5
  DOX dose required to kill 50% of the population of mice, after misoprostol: about 1.0 mg of DOX/average 30 gram mouse
[2]; 40 μg misoprostol 2 hours before 0.75 mg of DOX, FIG. 3
  percent still alive by day 15, misoprostol before DOX: about 85%
[2]; 40 μg misoprostol SC 2 hours before 0.5 mg of doxorubicin, FIG. 2
  percent survival after 15 days, misoprostol before DOX: 100%
[3]; 40 μg of misoprostol 2 hours before 0.5 mg of DOX, differential counts of peripheral blood
  percentage of lymphocytes, misoprostol before DOX: greater than 30%
[3]; misoprostol 40 μg/30 gram mouse 2 hours before DOX (0.5 mg/30 gram mouse), FIG. 7
  WBC counts, misoprostol before DOX: remained near control levels
[4]
  protection of mice from death due to 5-fluorouracil: effective in protecting mice from damaging effects of 5-fluorouracil
Hair follicles; 40 μg misoprostol SC 2 hours before each daily 0.1 mg DOX, 5 days, FIG. 9
  number of hairs, misoprostol + DOX: 213±7.8 hairs per 4.42 sq. mm
Hair follicles; 40 μg misoprostol SC 2 hours before each daily 1.0 mg cytoxan, 5 days, FIG. 10
  number of hairs, misoprostol + CTX: 222+5.5 hairs per 4.42 sq. mm

## COc1cccc2c1C(=O)c1c(O)c3c(c(O)c1C2=O)C[C@@](O)(C(=O)CO)C[C@@H]3O[C@H]1C[C@H](N)[C@H](O)[C@H](C)O1 [DOX, doxorubicin]
Hair medullary cells; 4 days after single IP dose: DOX 0.3, CTX 1, VP-16-213 0.3, ARA-C 8, HU 10, 5 FU 1.0, Methotrexate 0.2, Bleomycin 0.05, Mitomycin C 0.01, Cisplatin 0.25, Carboplatin 1.0, Taxol 0.6 mg, untreated control 51.4 ± 0.6
  Number of Medullar Cells ± 1 SEM, chemotherapeutic agent IP alone: 18.3 ± 1.7
Small intestine
  number of intestinal colonies per circumference, DOX alone: 6±0.3 intestinal colonies per circumference
[1]; IP, death within 15 days, FIG. 5
  dose of DOX that killed 50% of the mice, DOX alone: about 0.5 mg of DOX/average 30 gram mouse
[1]; following DOX administration
  time of all acute deaths due to DOX treatment alone (before day): < 15 days
Skin (hair follicles)
  number of hairs, doxorubicin alone: 43±8 hairs per 4.16 sq. mm
[2]; 0.75 mg of DOX IP alone, FIG. 3
  mortality, DOX alone: All of the mice were dead by six days
[5]
  survival at 360 h: ~25%
[3]; 0.5 mg DOX/30 gram mouse, FIG. 7
  WBCs in the peripheral circulation, DOX alone: sharply reduced over 7 days following treatment
[3]; 0.5 mg of DOX, differential counts, control mice about 85%
  percentage of lymphocytes, DOX alone: less than 10%
Hair follicles; 0.1 mg DOX daily for 5 days IP, controls 248±5, FIG. 9
  number of hairs, DOX alone: 144±3 hairs per 4.42 sq. mm
